pIC50: −log10 of the molar value. Activity calls are given as the source filed them. The calls are words filed in the database; no cut-off is given here.
Tests used:
BaF3 [1] = test: Antiproliferative activity against mouse BaF3 cells expressing rearranged during transfection kinase V804M-CCDC6 incubated for 74 to 76 hrs by cell counting kit 8 method
BaF3 [2] = conditions: Mus musculus, dose <= 100.0 nM, time 4.0 hrs
BaF3 [3] = test: Induction of apoptosis in mouse BaF3 cells harbouring CCDC6-RET G810C assessed as viable cells measured at 100 nM for 48 hrs by Annexin V-FITC staining based Guava easyCyte flow cytometric analysis (reference value: 90.90 %); type: functional; conditions: read-out: Activity
BaF3 [4] = test: Antitumor activity against mouse BaF3 cells harbouring CCDC6-RET G810C cells xenografted in CB17-SCID mouse assessed as reduction in tumor growth administered intraperitoneally qd administered for 12 days measured every 2 days; type: functional, cell-based; conditions: dose 10-30 mg/kg, route ip, time 12.0 day
BaF3 [5] = test: Antiproliferative activity against mouse BaF3 cells expressing rearranged during transfection kinase V804L-KIF5B incubated for 74 to 76 hrs by cell counting kit 8 method
BaF3 [6] = test: Induction of apoptosis in mouse BaF3 cells harbouring CCDC6-RET G810C assessed as late apoptotic cells measured at 33.3 nM for 48 hrs by Annexin V-FITC staining based Guava easyCyte flow cytometric analysis (reference value: 2.65 %); type: functional
[7] = Toxicity in CB17-SCID mouse xenografted with BaF3 cells expressing CCDC6-RET G810C assessed as loss of body weight measured at 10 to 30 mg/kg, ip qd administered for 12 days measured every 2 days; type: organism-based; conditions: in vivo, 288 h, dose 10-30 mg/kg, time 12 day
[8] = target: Proto-oncogene tyrosine-protein kinase receptor Ret/Coiled-coil domain-containing protein 6 (Mus musculus) (UniProt P35546+D3YZP9); test: Inhibition of wild type rearranged during transfection kinase/CCDC6 phosphorylation in mouse BaF3 cells measured at 100 nM for 4 hrs by Western blot analysis; type: cell-based
Sequence of Proto-oncogene tyrosine-protein kinase receptor Ret/Coiled-coil domain-containing protein 6 (Mus musculus) (D3YZP9 whole entry, looked up, the tested form may be a part): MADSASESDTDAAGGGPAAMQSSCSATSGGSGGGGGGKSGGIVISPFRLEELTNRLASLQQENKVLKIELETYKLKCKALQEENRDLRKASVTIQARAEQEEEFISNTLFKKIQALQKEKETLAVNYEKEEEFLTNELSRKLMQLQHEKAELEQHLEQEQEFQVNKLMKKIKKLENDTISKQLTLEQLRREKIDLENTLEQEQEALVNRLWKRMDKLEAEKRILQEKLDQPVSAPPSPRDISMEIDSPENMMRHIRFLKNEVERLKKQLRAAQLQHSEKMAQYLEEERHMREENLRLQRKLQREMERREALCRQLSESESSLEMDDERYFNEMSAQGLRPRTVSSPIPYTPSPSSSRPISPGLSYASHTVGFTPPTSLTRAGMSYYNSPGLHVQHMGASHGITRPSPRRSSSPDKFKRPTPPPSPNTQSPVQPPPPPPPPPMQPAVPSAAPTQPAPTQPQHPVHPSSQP
Sequence of Proto-oncogene tyrosine-protein kinase receptor Ret/Coiled-coil domain-containing protein 6 (Mus musculus) (P35546 whole entry, looked up, the tested form may be a part): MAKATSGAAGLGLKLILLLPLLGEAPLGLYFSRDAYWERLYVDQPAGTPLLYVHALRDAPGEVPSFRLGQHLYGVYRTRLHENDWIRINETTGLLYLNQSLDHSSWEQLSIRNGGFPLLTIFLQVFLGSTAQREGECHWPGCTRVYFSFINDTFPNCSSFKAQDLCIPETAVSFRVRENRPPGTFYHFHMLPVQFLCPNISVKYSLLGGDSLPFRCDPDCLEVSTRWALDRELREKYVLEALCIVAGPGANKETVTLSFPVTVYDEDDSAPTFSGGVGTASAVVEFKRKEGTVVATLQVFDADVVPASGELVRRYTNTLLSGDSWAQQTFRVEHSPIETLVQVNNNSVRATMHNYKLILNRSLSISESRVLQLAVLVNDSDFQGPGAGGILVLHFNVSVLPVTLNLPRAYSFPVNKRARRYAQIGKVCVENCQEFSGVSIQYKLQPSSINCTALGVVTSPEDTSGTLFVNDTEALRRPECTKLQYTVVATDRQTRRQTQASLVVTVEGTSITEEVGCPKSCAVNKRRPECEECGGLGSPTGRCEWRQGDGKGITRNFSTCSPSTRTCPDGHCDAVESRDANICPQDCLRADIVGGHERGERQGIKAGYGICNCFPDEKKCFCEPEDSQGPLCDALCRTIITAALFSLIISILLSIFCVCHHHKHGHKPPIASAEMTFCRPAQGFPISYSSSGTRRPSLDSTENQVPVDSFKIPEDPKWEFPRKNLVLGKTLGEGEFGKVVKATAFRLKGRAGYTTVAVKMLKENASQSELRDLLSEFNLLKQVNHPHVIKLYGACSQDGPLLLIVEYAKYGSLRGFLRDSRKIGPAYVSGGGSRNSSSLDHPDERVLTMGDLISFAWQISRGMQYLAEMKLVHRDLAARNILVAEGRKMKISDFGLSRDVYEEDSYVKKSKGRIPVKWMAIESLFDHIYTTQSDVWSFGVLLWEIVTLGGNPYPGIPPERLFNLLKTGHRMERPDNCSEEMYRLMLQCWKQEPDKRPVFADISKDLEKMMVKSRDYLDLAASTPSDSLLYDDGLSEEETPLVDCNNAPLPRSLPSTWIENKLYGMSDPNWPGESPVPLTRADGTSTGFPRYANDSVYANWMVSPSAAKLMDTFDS

BaF3 [9] = conditions: Mus musculus, CB17-SCID, Tumor/tissue, dose 10-30 mg/kg, route ip, time 13.0 day
BaF3 [10] = test: Induction of apoptosis in mouse BaF3 cells harbouring CCDC6-RET G810R assessed as viable cells measured at 100 nM for 48 hrs by Annexin V-FITC staining based Guava easyCyte flow cytometric analysis (reference value: 89.5 %); type: functional; conditions: read-out: Activity
BaF3 [11] = conditions: Mus musculus, CB17-SCID, Tumor/tissue, dose 10-30 mg/kg, route ip, time 13.0 day; remark: listed apart in the source
BaF3 [12] = test: Antiproliferative activity against mouse BaF3 cells expressing rearranged during transfection kinase V804L-G810R incubated for 74 to 76 hrs by cell counting kit 8 method
BaF3 [13] = test: Antiproliferative activity against mouse BaF3 cells expressing wildtype rearranged during transfection kinase-CCDC6 incubated for 74 to 76 hrs by cell counting kit 8 method
BaF3 [14] = test: Induction of apoptosis in mouse BaF3 cells harbouring CCDC6-RET G810R assessed as viable cells measured at 33.3 nM for 48 hrs by Annexin V-FITC staining based Guava easyCyte flow cytometric analysis (reference value: 89.5 %); type: functional; conditions: read-out: Activity
BaF3 [15] = test: Antiproliferative activity against mouse BaF3 cells incubated for 74 to 76 hrs by cell counting kit 8 method; type: functional, cell-based
BaF3 [16] = test: Induction of apoptosis in mouse BaF3 cells harbouring CCDC6-RET G810R assessed as early apoptotic cells measured at 100 nM for 48 hrs by Annexin V-FITC staining based Guava easyCyte flow cytometric analysis (reference value: 6.46 %); type: functional
BaF3 [17] = test: Antiproliferative activity against mouse BaF3 cells expressing wildtype rearranged during transfection kinase-KIF5B incubated for 74 to 76 hrs by cell counting kit 8 method
BaF3 [18] = test: Antiproliferative activity against mouse BaF3 cells expressing rearranged during transfection kinase V804M-KIF5B incubated for 74 to 76 hrs by cell counting kit 8 method
BaF3 [19] = test: Induction of apoptosis in mouse BaF3 cells harbouring CCDC6-RET G810R assessed as necrotic cells measured at 300 nM for 48 hrs by Annexin V-FITC staining based Guava easyCyte flow cytometric analysis (reference value: 0.64 %); type: functional
BaF3 [20] = conditions: Mus musculus, dose 100.0 nM, time 4.0 hrs
BaF3 [21] = test: Induction of apoptosis in mouse BaF3 cells harbouring CCDC6-RET G810C assessed as necrotic cells measured at 100 nM for 48 hrs by Annexin V-FITC staining based Guava easyCyte flow cytometric analysis (reference value: 0.35 %); type: functional
BaF3 [22] = test: Induction of apoptosis in mouse BaF3 cells harbouring CCDC6-RET G810C assessed as viable cells measured at 33.3 nM for 48 hrs by Annexin V-FITC staining based Guava easyCyte flow cytometric analysis (reference value: 90.90 %); type: functional; conditions: read-out: Activity
BaF3 [23] = test: Induction of apoptosis in mouse BaF3 cells harbouring CCDC6-RET G810C assessed as early apoptotic cells measured at 100 nM for 48 hrs by Annexin V-FITC staining based Guava easyCyte flow cytometric analysis (reference value: 6.10 %); type: functional
BaF3 [24] = test: Induction of apoptosis in mouse BaF3 cells harbouring CCDC6-RET G810R assessed as late apoptotic cells measured at 300 nM for 48 hrs by Annexin V-FITC staining based Guava easyCyte flow cytometric analysis (reference value: 3.4 %); type: functional
[25] = Toxicity in CB17-SCID mouse xenografted with BaF3 cells expressing CCDC6-RET G810C assessed as tolerability measured at 10 to 30 mg/kg, ip qd administered for 12 days; type: organism-based; conditions: in vivo, 288 h, dose 10-30 mg/kg, time 12 day
BaF3 [26] = test: Induction of apoptosis in mouse BaF3 cells harbouring CCDC6-RET G810R assessed as necrotic cells measured at 100 nM for 48 hrs by Annexin V-FITC staining based Guava easyCyte flow cytometric analysis (reference value: 0.64 %); type: functional
BaF3 [27] = test: Antiproliferative activity against mouse BaF3 cells expressing rearranged during transfection kinase V804L-G810C incubated for 74 to 76 hrs by cell counting kit 8 method
BaF3 [28] = test: Induction of apoptosis in mouse BaF3 cells harbouring CCDC6-RET G810R assessed as early apoptotic cells measured at 300 nM for 48 hrs by Annexin V-FITC staining based Guava easyCyte flow cytometric analysis (reference value: 6.46 %); type: functional
BaF3 [29] = test: Antitumor activity against mouse BaF3 cells harbouring CCDC6-RET G810C cells xenografted in CB17-SCID mouse assessed as reduction in tumor growth at 10 mg/kg ip qd administered for 12 days measured every 2 days relative to control; type: functional; conditions: BaF3, 288 h, time 12 day, read-out: TGI
BaF3 [30] = conditions: Mus musculus, dose 100.0 nM, time 4.0 hrs; remark: listed apart in the source
BaF3 [31] = conditions: Mus musculus, dose <= 100.0 nM, time 4.0 hrs; remark: listed apart in the source
BaF3 [32] = test: Induction of apoptosis in mouse BaF3 cells harbouring CCDC6-RET G810C assessed as early apoptotic cells measured at 33.3 nM for 48 hrs by Annexin V-FITC staining based Guava easyCyte flow cytometric analysis (reference value: 6.10 %); type: functional
BaF3 [33] = conditions: Mus musculus, dose 100.0 nM, time 4.0 hrs; remark: listed apart in the source

SMILES: COc1cc2nccc(Oc3ccc(Nc4nn(C)cc4C(=O)NC45CC6CC(CC(C6)C4)C5)c(F)c3)c2cc1C(N)=O
- pIC50 (BaF3 [1]): 7.61
- inhibition (BaF3 [2]): Dose-Dependent Effect
- viability at 0.1 µM (BaF3 [3]): 80.2%
- Activity (BaF3 [4]): Dose-Dependent Effect
- pIC50 (BaF3 [5]): 7.33
- Activity (BaF3 [6]): 1.5%
- Activity [7]: Non-Toxic
- inhibition [8]: Active
- inhibition (BaF3 [9]): Active
- viability at 0.1 µM (BaF3 [10]): 88.6%
- inhibition (BaF3 [11]): Active
- pIC50 (BaF3 [12]): 6.92
- pIC50 (BaF3 [13]): 8.25
- viability at 0.0333 µM (BaF3 [14]): 91.1%
- pIC50 (BaF3 [15]): < 5.00
- Activity (BaF3 [16]): 9.4%
- pIC50 (BaF3 [17]): 8.21
- pIC50 (BaF3 [18]): 7.27
- Activity (BaF3 [19]): 0.24%
- inhibition (BaF3 [20]): Active
- Activity (BaF3 [21]): 0.25%
- viability at 0.0333 µM (BaF3 [22]): 90.8%
- Activity (BaF3 [23]): 17.19%
- Activity (BaF3 [24]): 3.21%
- Activity [25]: Non-Toxic
- Activity (BaF3 [26]): 0.23%
- pIC50 (BaF3 [27]): 7.27
- Activity (BaF3 [28]): 32.67%
- inhibition in vivo at 10 mg/kg (BaF3 [29]): 17.1%
- inhibition (BaF3 [30]): Active
- inhibition (BaF3 [31]): Dose-Dependent Effect
- Activity (BaF3 [32]): 7.39%
- inhibition (BaF3 [33]): Active

— ChEMBL document CHEMBL5247627, “1-Methyl-3-((4-(quinolin-4-yloxy)phenyl)amino)-1H-pyrazole-4-carboxamide derivatives as new rearranged during Transfection (RET) kinase inhibitors capable of suppressing resistant mutants in solvent-front regions” (Eur J Med Chem, 2022)
